Laboratory results as given in PubChem BioAssay AID330 (DTP/NCI, 2004).
Where “and” joins values, the source holds several entries; their conditions need not be identical. Equal entries are not always repeated. Toxic doses and inconclusive results are not listed. The calls were made as follows: active = survival T/C of 150% or more; inactive = T/C below 125% in these data.

Test system: P388 leukemia ip, CD2F1 mice, survival T/C
Experiment: NCI In Vivo Anticancer Drug Screen. Data for tumor model P388 Leukemia (intraperitoneal) in CD2F1 (CDF1) mice
Details: endpoint: median survival time, higher = longer survival
How it was run: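 Mice carrying the transplanted tumor received test compound or vehicle. Survival was recorded in each group, and the value is the treated-group measurement divided by that of the vehicle-treated control group.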

[1] = dose: 12.5 mg/kg/injection, schedule: Q01DX009 (ip), vehicle: Klucel (hydroxypropylcellulose) (HPC)
[2] = dose: 25.0 mg/kg/injection, schedule: Q01DX009 (ip), vehicle: Klucel (hydroxypropylcellulose) (HPC)
[3] = dose: 12.5 mg/kg/injection, schedule: Q01DX005 (ip), vehicle: Klucel (hydroxypropylcellulose) (HPC)
[4] = dose: 25.0 mg/kg/injection, schedule: Q01DX005 (ip), vehicle: Klucel (hydroxypropylcellulose) (HPC)
[5] = dose: 50.0 mg/kg/injection, schedule: Q01DX005 (ip), vehicle: Klucel (hydroxypropylcellulose) (HPC)
[6] = dose: 50.0 mg/kg/injection, schedule: Q01DX005 (ip), vehicle: saline with Tween-80
[7] = dose: 100.0 mg/kg/injection, schedule: Q01DX005 (ip), vehicle: saline with Tween-80
[8] = dose: 200.0 mg/kg/injection, schedule: Q01DX005 (ip), vehicle: saline with Tween-80
[9] = dose: 50.0 mg/kg/injection, schedule: Q01DX009 (ip), vehicle: Klucel (hydroxypropylcellulose) (HPC)
[10] = dose: 100.0 mg/kg/injection, schedule: Q01DX009 (ip), vehicle: Klucel (hydroxypropylcellulose) (HPC)

Measured: T/C

c1onc2cc3c(cc12)OCO3
inactive: dose: 0.39 mg/kg/injection, schedule: Q01DX009 (ip), vehicle: Klucel (hydroxypropylcellulose) (HPC) 86 % of control and 88 % of control | dose: 0.78 mg/kg/injection, schedule: Q01DX009 (ip), vehicle: Klucel (hydroxypropylcellulose) (HPC) 89 % of control and 95 % of control | dose: 1.56 mg/kg/injection, schedule: Q01DX009 (ip), vehicle: Klucel (hydroxypropylcellulose) (HPC) 124 % of control and 89 % of control and 93 % of control | dose: 3.13 mg/kg/injection, schedule: Q01DX009 (ip), vehicle: Klucel (hydroxypropylcellulose) (HPC) 99 % of control and 92 % of control | [1] 89 % of control | [2] 93 % of control

COc1ccc(Cl)cc1C
inactive: dose: 12.5 mg/kg/injection, schedule: Q01DX009 (ip), vehicle: distilled water + Tween-80 99 % of control | dose: 25.0 mg/kg/injection, schedule: Q01DX009 (ip), vehicle: distilled water + Tween-80 97 % of control | dose: 50.0 mg/kg/injection, schedule: Q01DX009 (ip), vehicle: distilled water + Tween-80 98 % of control | dose: 100.0 mg/kg/injection, schedule: Q01DX009 (ip), vehicle: distilled water + Tween-80 98 % of control | dose: 200.0 mg/kg/injection, schedule: Q01DX009 (ip), vehicle: distilled water + Tween-80 108 % of control | dose: 400.0 mg/kg/injection, schedule: Q01DX009 (ip), vehicle: distilled water + Tween-80 116 % of control

CN(C)/C(=C(\CBr)C(=O)c1ccc(-c2ccccc2)cc1)c1ccccc1
inactive: [3] 108 % of control | [4] 105 % of control | [5] 105 % of control and 107 % of control

C=CC(=NC(C)C)Nc1ccccc1
inactive: dose: 1.56 mg/kg/injection, schedule: Q01DX009 (ip), vehicle: saline 112 % of control | dose: 3.12 mg/kg/injection, schedule: Q01DX009 (ip), vehicle: saline 105 % of control | dose: 6.25 mg/kg/injection, schedule: Q01DX009 (ip), vehicle: saline 104 % of control and 113 % of control

Cc1ccc(S(=O)(=O)CC(=O)CC(=O)C(=O)NC2C3CC4CC(C3)CC2C4)cc1 (stereo not drawn)
inactive: [6] 98 % of control | [7] 90 % of control | [8] 90 % of control

CC1(C)C(=O)N(Br)C(=O)N1Br
inactive: [1] 101 % of control | [2] 99 % of control | [9] 99 % of control | [10] 90 % of control

CC(=O)Oc1ccc(CO)cc1OC(C)=O
inactive: dose: 50.0 mg/kg/injection, schedule: Q01DX005 (ip), vehicle: saline 101 % of control and 102 % of control | dose: 100.0 mg/kg/injection, schedule: Q01DX005 (ip), vehicle: saline 106 % of control and 108 % of control

O=C(Nc1ccc(Cl)c(Cl)c1)/C(Cl)=C1/Sc2ccccc2NC1=O
inactive: dose: 60.0 mg/kg/injection, schedule: Q01DX005 (ip), vehicle: saline with Tween-80 105 % of control | dose: 120.0 mg/kg/injection, schedule: Q01DX005 (ip), vehicle: saline with Tween-80 105 % of control | dose: 240.0 mg/kg/injection, schedule: Q01DX005 (ip), vehicle: saline with Tween-80 105 % of control

CC1(C)CC2([Si](C)(C)C)C(=O)NC(=O)NC12 (stereo not drawn)
inactive: [3] 105 % of control | [4] 99 % of control | [5] 99 % of control | dose: 100.0 mg/kg/injection, schedule: Q01DX005 (ip), vehicle: Klucel (hydroxypropylcellulose) (HPC) 97 % of control

COc1ccc2c(c1)CCC1=C2CCP1(C)=S (stereo not drawn)
inactive: [9] 106 % of control | [10] 97 % of control | dose: 200.0 mg/kg/injection, schedule: Q01DX009 (ip), vehicle: Klucel (hydroxypropylcellulose) (HPC) 88 % of control

COc1cccc(C[n+]2ccccc2C#N)c1OC
inactive: dose: 3.12 mg/kg/injection, schedule: Q04DX002 (ip), vehicle: saline 101 % of control | dose: 6.25 mg/kg/injection, schedule: Q04DX002 (ip), vehicle: saline 102 % of control | dose: 12.5 mg/kg/injection, schedule: Q04DX002 (ip), vehicle: saline 103 % of control and 92 % of control

CC(=O)NC1C(NC(=S)NCC(=O)c2ccc(C)cc2)OC(COC(C)=O)C(OC(C)=O)C1OC(C)=O (stereo not drawn)
inactive: [6] 94 % of control | [7] 94 % of control | [8] 91 % of control
